Source: article PMC11172375, “Preclinical Evaluation of Biodistribution and Toxicity of [^211At]PSMA-5 in Mice and Primates for the Targeted Alpha Therapy against Prostate Cancer” (International Journal of Molecular Sciences, 2024)
“Also recorded” adds a separate entry of the source.

Legend:
[1] = Biodistribution in cynomolgus monkey (planar/SPECT imaging, 24 h autopsy); format: in vivo; conditions: 9 MBq/kg i.v.
Protocol: (§1) [^211At]PSMA-5 was administered intravenously to 25 mice, and its biodistribution was evaluated. For the toxicity study, three doses of [^211At]PSMA-5 (5, 12, and 35 MBq/kg, single dose) or saline were intravenously administered to 10 mice/group for the main evaluation point on day 1, and 5-mice/group for recovery evaluation on day 14, adhering to the ICH M3 (R2) guidelines. The dosage was determined based on our previous study using [^211At]NaAt. The monkeys were monitored for 24 h post-administration of [^211At]PSMA-5 (9 MBq/kg).
Monkeys were anesthetized with intramuscular administration of ketamine (10 mg/kg) and xylazine (0.5 mg/kg) with isoflurane inhalation anesthesia. Planar and Single Photon Emission Computed Tomography (SPECT) imaging was performed in monkeys using a γ-camera system (E-cam, Siemens, Erlangen, Germany) immediately after administration to 1 h and at 3 and 24 h post-administration of [^211At]PSMA-5 (9 MBq/kg), targeting the X-rays emitted from the daughter nuclide ^211Po (energy window: 79 keV ± 20%). […]
Urine and feces samples were collected at each time point. […] Organ weights and radiation doses were measured using a γ-counter (model: 2480Wizard2, PerkinElmer) and γ-camera system (E-cam) by appropriate cross-calibration.

[2] = Extended single-dose toxicity study in mice: general condition, body weight, organ weight; format: in vivo, ICR mice; conditions: for testes organ weight: day 14
Protocol: This study was conducted in compliance with the Animal Experiment Regulations and the Act on Welfare and Management of Animals of the Osaka University Graduate School of Medicine (approval numbers: 04-070 and 04-094). Normal male ICR mice (n = 85, 5–6 weeks old, body weight: 29.4 ± 2.3 g) and cynomolgus monkey (n = 2, body weight: 2.10 and 2.05 kg) were purchased from Japan SLC Inc. (Hamamatsu, Japan) and Hamri Co., Ltd. (Ibaraki, Japan), respectively. The animals were housed under a 12 h light/12 h dark cycle. General condition and body weight were monitored.
as §1
(§2) The brain, salivary gland, thyroid, heart, lungs, liver, kidney, adrenal gland, pancreas, spleen, thymus, stomach, small intestine, large intestine, bladder, prostate, and testes were collected on days 1 or 14 in mice and at 24 h in monkeys. Additionally, the pituitary gland, tongue, trachea, esophagus, mesenteric lymph nodes, epididymis, seminal vesicles, skin, mammary glands, spinal cord, bone, bone marrow (femur), eyeball, and optic nerve were collected from the mice. After fixation, paraffin sections were prepared and stained with hematoxylin and eosin (HE). All the specimens were evaluated by an expert in toxic pathology using an integrated fluorescence microscope (BZ-X810; Keyence Corporation. Osaka, Japan). In mice, the brain, salivary glands, heart, lungs, liver, gallbladder, spleen, kidneys, and testes were weighed according to ICH S4 guideline.

[3] = Hematological examination in mice; format: in vivo, ICR mice; conditions: for %Lymph / Hb / Ht / Platelet / RBC / WBC: mice
Protocol: as §1
A blood cell counter was used for the measurements (CB-1010; ARKRAY, Inc., Kyoto, Japan). Red blood cell count (RBC), hemoglobin concentration (Hb), hematocrit (Ht), white blood cell count (WBC), platelet count (platelet), lymphocytes (%Lymph), monocytes (%Mon), and granulocytes (%Gra) were calculated. Plasma was analyzed using a dry clinical chemistry analyzer (Spotchem D-00 QR D-02; ARKRAY, Inc., Kyoto, Japan). The levels of aspartate aminotransferase (AST), alanine aminotransferase (ALT), gamma-glutamyl transpeptidase (γ-GTP), lactate dehydrogenase (LDH), alkaline phosphatase (ALP), creatine kinase (CK), amylase (AMY), total bilirubin (TBIL), creatinine (CRE), urea nitrogen (BUN), glucose (GLU), total protein (TP), albumin (ALB), total cholesterol (TCHO), triglyceride (TG), and electrolytes (Na, K, and Cl) were measured.

[4] = Histological evaluation in monkeys; format: in vivo, cynomolgus monkeys; conditions: 9 MBq/kg, 24 h
Protocol: as §1, §2

With O=C(O)CC[C@H](NC(=O)N[C@@H](CCCCNC(=O)[C@@H](Cc1ccc2ccccc2c1)NC(=O)c1ccc(CNC(=O)[C@@H](CCC(=O)O)NC(=O)[C@@H](CCC(=O)O)NC(=O)Cc2ccc([211At])cc2)cc1)C(=O)O)C(=O)O [[^211At]PSMA-5] the cumulative fecal excretion [1] was 11.27 %ID, the cumulative urinary excretion [1] was 0.46 %ID and the “STD10 in human after body surface area conversion” value ([2]; converted from mice) was over 2.8 MBq/kg. For the same molecule, the “body weight compared to the control” value ([2]; mice, 12 MBq/kg, day 5) was “significant decrease in body weight”, the testes organ weight ([2]; mice, 12 MBq/kg) was 0.18 ± 0.02 g and the “body weight compared to the control” value ([2]; mice, 35 MBq/kg, day 10) was “significant decrease in body weight”. The testes organ weight ([2]; mice, 35 MBq/kg) was 0.17 ± 0.003 g, the “severe toxicity or death” value ([2]; mice, highest dose 35 MBq/kg, 14-day observation) was “No severe toxicity or death was observed; also recorded: no severe toxicity” and the “STD10 (dose that causes severe toxicity in 10% of test animals)” value ([2]; mice, single i.v. dose) was “exceed 35 MBq/kg”. For the same molecule, the “blood examination versus control group” value ([3]; mice, 5, 12 and 35 MBq/kg, day 1 or day 14) was “no significant difference”, the “%Lymph” value ([3]; 5 MBq/kg i.v., day 1) was 66.3 ± 15.8% and the Hb ([3]; 5 MBq/kg i.v., day 1) was 12.9 ± 0.4 g/dL. For the same molecule, the Ht ([3]; 5 MBq/kg i.v., day 1) was 42.5 ± 1.4%, the Platelet ([3]; 5 MBq/kg i.v., day 1) was 976 ± 524 10^3 cell/µL and the RBC ([3]; 5 MBq/kg i.v., day 1) was 7.8 ± 0.3 10^6 cell/µL. For the same molecule, the WBC ([3]; 5 MBq/kg i.v., day 1) was 6.3 ± 4.1 10^3 cell/µL, the “%Lymph” value ([3]; 5 MBq/kg i.v., day 14) was 70 ± 8.8% and the Hb ([3]; 5 MBq/kg i.v., day 14) was 14.4 ± 0.4 g/dL. For the same molecule, the Ht ([3]; 5 MBq/kg i.v., day 14) was 45.4 ± 1%, the Platelet ([3]; 5 MBq/kg i.v., day 14) was 1120 ± 555 10^3 cell/µL and the RBC ([3]; 5 MBq/kg i.v., day 14) was 8.7 ± 0.2 10^6 cell/µL. For the same molecule, the WBC ([3]; 5 MBq/kg i.v., day 14) was 6.9 ± 3.3 10^3 cell/µL, the “%Lymph” value ([3]; 12 MBq/kg i.v., day 1) was 62.6 ± 14.2% and the Hb ([3]; 12 MBq/kg i.v., day 1) was 13.0 ± 0.8 g/dL. For the same molecule, the Ht ([3]; 12 MBq/kg i.v., day 1) was 42.6 ± 2.3%, the Platelet ([3]; 12 MBq/kg i.v., day 1) was 1329 ± 845 10^3 cell/µL and the RBC ([3]; 12 MBq/kg i.v., day 1) was 8.0 ± 0.5 10^6 cell/µL. The WBC ([3]; 12 MBq/kg i.v., day 1) was 8.3 ± 4.9 10^3 cell/µL, the “%Lymph” value ([3]; 12 MBq/kg i.v., day 14) was 59.9 ± 12.1% and the Hb ([3]; 12 MBq/kg i.v., day 14) was 13.8 ± 0.9 g/dL. The Ht ([3]; 12 MBq/kg i.v., day 14) was 43.9 ± 3%, the Platelet ([3]; 12 MBq/kg i.v., day 14) was 922 ± 608 10^3 cell/µL and the RBC ([3]; 12 MBq/kg i.v., day 14) was 8.3 ± 0.6 10^6 cell/µL. For the same molecule, the WBC ([3]; 12 MBq/kg i.v., day 14) was 6.9 ± 1.9 10^3 cell/µL, the “%Lymph” value ([3]; 35 MBq/kg i.v., day 1) was 53.5 ± 16.9% and the Hb ([3]; 35 MBq/kg i.v., day 1) was 12.8 ± 0.7 g/dL. The Ht ([3]; 35 MBq/kg i.v., day 1) was 42.3 ± 2%, the Platelet ([3]; 35 MBq/kg i.v., day 1) was 952 ± 444 10^3 cell/µL and the RBC ([3]; 35 MBq/kg i.v., day 1) was 7.9 ± 0.3 10^6 cell/µL. For the same molecule, the WBC ([3]; 35 MBq/kg i.v., day 1) was 8.0 ± 5.2 10^3 cell/µL, the “%Lymph” value ([3]; 35 MBq/kg i.v., day 14) was 53.9 ± 6.4% and the Hb ([3]; 35 MBq/kg i.v., day 14) was 13.6 ± 0.7 g/dL. The Ht ([3]; 35 MBq/kg i.v., day 14) was 43.1 ± 2.4%, the Platelet ([3]; 35 MBq/kg i.v., day 14) was 1331 ± 1037 10^3 cell/µL and the RBC ([3]; 35 MBq/kg i.v., day 14) was 8.4 ± 0.4 10^6 cell/µL. For the same molecule, the WBC ([3]; 35 MBq/kg i.v., day 14) was 5.4 ± 2.8 10^3 cell/µL, the “administration-related pathology in brain, salivary glands, thyroid, heart, liver, gallbladder, pancreas, rectum, kidney, bladder, adrenal glands, prostate” value [4] was “No pathological abnormalities” and the “crypt epithelial cells of the small and large (cecum) intestines” value [4] was “Mild single-cell necrosis/apoptosis”. For the same molecule, the “tingible body macrophages in white pulp of the spleen, intraparotid and intrapulmonary lymph nodes” value [4] was “mild increase”.
